Consider two compounds from ChEMBL document CHEMBL1124698, “Squalene analogues containing isopropylidene mimics as potential inhibitors of pig liver squalene epoxidase and oxidosqualene cyclase” (J Med Chem, 1989).

Molecules are shown by their SMILES.

The target of one assay is Squalene monooxygenase (Homo sapiens, UniProt Q14534). Description: Inhibitory activity against Squalene Epoxidase in pig liver; NI-No inhibitory effect at 400 uM. Details: species or system Sus scrofa. As to conditions: target entry is the homologue from another species.
Squalene monooxygenase, sequence (Q14534 whole entry): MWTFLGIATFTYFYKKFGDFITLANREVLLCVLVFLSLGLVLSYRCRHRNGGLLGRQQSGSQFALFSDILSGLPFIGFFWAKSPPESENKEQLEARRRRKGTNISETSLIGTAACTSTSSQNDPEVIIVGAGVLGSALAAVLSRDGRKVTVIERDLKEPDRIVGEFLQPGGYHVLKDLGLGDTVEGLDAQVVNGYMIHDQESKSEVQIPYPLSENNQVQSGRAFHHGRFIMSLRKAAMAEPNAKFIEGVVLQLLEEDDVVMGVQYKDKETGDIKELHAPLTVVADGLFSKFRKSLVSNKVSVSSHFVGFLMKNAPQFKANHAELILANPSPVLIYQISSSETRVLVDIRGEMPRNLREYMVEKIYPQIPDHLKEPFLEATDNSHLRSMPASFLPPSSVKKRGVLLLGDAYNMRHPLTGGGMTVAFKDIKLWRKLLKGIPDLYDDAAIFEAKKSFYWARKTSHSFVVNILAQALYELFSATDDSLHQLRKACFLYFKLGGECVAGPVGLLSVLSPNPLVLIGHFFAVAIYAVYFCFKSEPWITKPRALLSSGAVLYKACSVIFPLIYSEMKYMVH
The target in the next assay is T1, Lanosterol synthase (Rattus norvegicus, UniProt P48450).
T1 sequence (P48450 whole entry): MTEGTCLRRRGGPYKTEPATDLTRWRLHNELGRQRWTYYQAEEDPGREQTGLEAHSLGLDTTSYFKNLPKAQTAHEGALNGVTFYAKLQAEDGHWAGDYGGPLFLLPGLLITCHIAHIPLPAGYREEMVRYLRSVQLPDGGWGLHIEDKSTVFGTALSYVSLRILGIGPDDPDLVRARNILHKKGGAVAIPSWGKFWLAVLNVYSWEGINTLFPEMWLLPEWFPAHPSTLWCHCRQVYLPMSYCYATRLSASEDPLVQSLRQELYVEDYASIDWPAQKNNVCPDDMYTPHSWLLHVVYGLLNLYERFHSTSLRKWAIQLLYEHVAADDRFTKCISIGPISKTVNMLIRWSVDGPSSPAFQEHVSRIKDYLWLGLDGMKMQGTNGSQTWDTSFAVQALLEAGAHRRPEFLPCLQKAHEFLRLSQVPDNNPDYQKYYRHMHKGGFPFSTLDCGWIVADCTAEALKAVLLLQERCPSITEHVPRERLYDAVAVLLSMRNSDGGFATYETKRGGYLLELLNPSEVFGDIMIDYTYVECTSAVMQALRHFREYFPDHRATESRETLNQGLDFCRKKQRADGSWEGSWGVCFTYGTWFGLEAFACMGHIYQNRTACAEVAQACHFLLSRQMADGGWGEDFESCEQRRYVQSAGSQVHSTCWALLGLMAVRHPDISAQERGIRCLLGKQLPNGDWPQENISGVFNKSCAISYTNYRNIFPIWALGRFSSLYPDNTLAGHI
In words: Inhibitory activity against Oxidosqualene-lanosterol cyclase in pig liver; NI-No inhibitory effect at 400 uM. Also noted: species or system Sus scrofa. To be noted: target entry is the homologue from another species.

Consider `C=C=CCC/C(C)=C/CC/C(C)=C/CC/C=C(\C)CC/C=C(\C)CCC=C(C)C`, for which the IC50 entry on Squalene monooxygenase and against Lanosterol synthase was “No inhibition” each time.
On to `C#CCC/C(C)=C/CC/C(C)=C/CC/C=C(\C)CC/C=C(\C)CCC=C(C)C`, for which, on Squalene monooxygenase, the IC50 result is “No inhibition”.
